We go through one substance from PMC3670040, “Structure of Lipid Kinase p110β/p85β Elucidates an Unusual SH2-Domain-Mediated Inhibitory Mechanism” (Molecular Cell, 2011).

Square brackets hold non-standard residues; d marks the D form. Ends that are not written are not given here. pY = N[C@@H](Cc1ccc(OP(=O)(O)O)cc1)C(=O)O

The subject of one assay is p110β/p85β-nic. The experiment in a line: ATPase activity (ADP formation) in the absence of lipid substrate, Transcreener. In kind it is biochemical, mouse. Conditions: p110β/p85-niSH2 and p110β/p85-icSH2 complexes; absence of lipid substrate. On the procedure: Figure 1 Inhibition of p110β by p85-Type Regulatory Subunits and Activation of the Complexes by RTK Phosphopeptide (A) Domain organization of p110β and the regulatory subunits p85α, p85β, and p55γ. The color scheme for the domains is used for all figures, unless otherwise stated. […] The inhibition is released upon addition of the 10 μM PDGFR pY2. […] The y axis is expressed as a change in fluorescence polarization (ΔmP), which is obtained by subtracting the observed polarization for the construct at a given enzyme concentration from the maximum fluorescence polarization for that construct. The plateau in these assays arises due to the competitive nature of the ADP detection system, based on displacement of ADP-Alexa 633 tracer from the ADP^2-antibody by ADP generated during the PI3K assay (see Supplemental Experimental Procedures). All measurements were done in triplicates, and the error bars indicate the standard error of the mean (SEM). […]
The lipid kinase activity was determined using the Transcreener ADP2 FP Assay (BellBrook Labs, Madison, WI) according to manufacturer‟s specifications. This non-radioactive assay measures activity by quantitating the amount of ADP formed. The ADP formed by PI3K competes with fluorescent ADP tracer for binding to an anti-ADP antibody, thereby decreasing fluorescence polarization. […]

In the next assay the test system is p110β/p85β complexes. The assay is described as follows: Transcreener ADP formation, soluble monomeric diC8-PIP2 substrate. In kind it is biochemical, mouse. Conditions: p110β/p85-niSH2 and p110β/p85-icSH2 complexes. The procedure:
Figure 1 Inhibition of p110β by p85-Type Regulatory Subunits and Activation of the Complexes by RTK Phosphopeptide (A) Domain organization of p110β and the regulatory subunits p85α, p85β, and p55γ. The color scheme for the domains is used for all figures, unless otherwise stated. […] The inhibition is released upon addition of the 10 μM PDGFR pY2. […] The y axis is expressed as a change in fluorescence polarization (ΔmP), which is obtained by subtracting the observed polarization for the construct at a given enzyme concentration from the maximum fluorescence polarization for that construct. […]
The lipid kinase activity was determined using the Transcreener ADP2 FP Assay (BellBrook Labs, Madison, WI) according to manufacturer‟s specifications. This non-radioactive assay measures activity by quantitating the amount of ADP formed. The ADP formed by PI3K competes with fluorescent ADP tracer for binding to an anti-ADP antibody, thereby decreasing fluorescence polarization. Because of the competitive nature of this assay, the change in fluorescence polarization signal is not a linear function of enzyme activity, and a convenient measure of enzyme activity is the EC50, or the concentration of enzyme necessary to give half-maximal inhibition of labeled ADP binding to the antibody, for a given concentration of substrate and a fixed time of reaction at initial rate. […]

For the substance “ESDGG[pY]MDMSKDESID[pY]VPMLDMKGDIKYADIE [pY2, bis-phosphopeptide (PDGFR 735–767, with pY740 and pY751)]”, the “ATPase activity in the presence of pY2” value in the assay with p110β/p85β-nic is reported as “enhanced”. Also, in the assay on p110β/p85β complexes, the “activity with soluble lipid substrate in the presence of pY2” value is recorded as “enhanced”.
